One compound from patent US20260325653A1, “HETEROBIFUNCTIONAL SMALL MOLECULES THAT DEUBIQUITINYLATE AND STABILIZE TARGET PROTEINS BY RECRUITING USP7” (ICAHN SCHOOL OF MEDICINE AT MOUNT SINAI, priority 2023, published 2026) can be followed below.

The subject of the assay is CFTR mRNA. Kind of assay: RT-qPCR analysis of CFTR mRNA levels in CFBE41o− 4.7 ΔF508-CFTR cells. It counts as cell-based, human. The settings on record: 10 μM, 24 h. (In general: Quantitative PCR measures a nucleic acid by following its amplification.)

Structures are written as SMILES.

For `Cc1ccc(NC(=O)C2(c3ccc4c(c3)OC(F)(F)O4)CC2)nc1-c1cccc(C(=O)NCCCCCCCCCNC(=O)CNCc2ccc(-c3c4ncn(CC5(O)CCN(C(=O)C[C@@H](C)c6ccccc6)CC5)c(=O)c4nn3C)cc2)c1` [MS6869, (R)-3-(6-(1-(2,2-difluorobenzo[d][1,3]dioxol-5-yl)cyclopropane-1-carboxamido)-3-methylpyridin-2-yl)-N-(9-(2-((4-(6-((4-hydroxy-1-(3-phenylbutanoyl)piperidin-4-yl)methyl)-2-methyl-7-oxo-6,7-dihydro-2H-pyrazolo[4,3-d]pyrimidin-3-yl)benzyl)amino)acetamido)nonyl)benzamide], the “mRNA levels of CFTR” value is listed as “do not affect the mRNA levels of CFTR”.
